Series [1] concerns A2780 human ovarian cancer cells. Nature of the series: In vitro growth inhibition assay (SRB), A2780. Format: cell-based. Particulars: A2780, Supplementary Table 3. The procedure: A2780 human ovarian carcinoma and MRC5 human fetal lung fibroblasts were obtained from the European Collection of Cell Cultures. Both cell lines were grown in Roswell Park Memorial Institute medium (RPMI-1640) supplemented with 10% of fetal calf serum, 1% of 2 mM glutamine and 1% penicillin/streptomycin. All cells were grown as adherent monolayers at 310 K in a 5% CO2-humidified atmosphere and passaged at ca. 70–80% confluency.
The antiproliferative activity of complexes 1–8 was determined in A2780 ovarian cancer cells and MRC5 fibroblasts. Briefly, 96-well plates were used to seed 5,000 cells per well. The plates were left to pre-incubate with drug-free medium at 310 K for 48 h before adding different concentrations of the compounds to be tested. A drug exposure period of 24 h was allowed. After this, supernatants were removed by suction and each well was washed with PBS. A further 72 h were allowed for the cells to recover in drug-free medium at 310 K. The sulforhodamine B (SRB) assay was used to determine cell viability. IC50 values, as the concentration that causes 50% cell death, were determined as duplicates of triplicates in two independent sets of experiments and their s.d. were calculated.

Series [2] can be described thus: Transfer hydrogenation of NAD+ to 1,4-NADH with formate, followed by 1H NMR. Particulars: for TOF D2O/MeOH-d4: 23% MeOH-d4/77% D2O; for TOF D2O/MeOH-d4 / TOF D2O: NAD+ 2 mol equiv, formate 25 mol equiv, 310 K, pH* 7.2. On the procedure: Complexes 1–7 were dissolved in MeOH-d4/D2O (5:1 v/v, 1.4 mM, 4 ml). Solutions of sodium formate (35 mM, 4 ml) and NAD^+ in D2O (2.8 mM, 2 ml) were also prepared and incubated at 310 K. In a typical experiment, 200-μl aliquots of each solution were added to a 5-mm NMR tube and the pH* adjusted to 7.2±0.1 (total volume 0.635 ml, final concentrations: Ru complex 0.44 mM; NAD^+ 0.88 mM; formate 11.02 mM; molar ratio 1:2:25). ^1H NMR spectra were recorded at 310 K every 162 s until the completion of the reaction.
Molar ratios of NAD^+ and NADH were determined by integrating the peaks at 9.33 and 6.96 p.p.m. (NAD^+ and 1,4-NADH, respectively). The turnover number for the reaction was calculated as follows: […]
where In is the integral of the signal at n p.p.m. and [NAD^+]0 is the concentration of NAD^+ at the start of the reaction.

A short description of series [3]: pKa* of aqua adducts of the complexes. In kind it is physicochemical. To be noted: pKa value determined in deuterated solvent. The text has this:
Table 1 pKa* values for aqua adducts of catalysts 1–4 (and 8 for comparison) and turnover frequencies for transfer hydrogenation of NAD^+ using formate. | column: pKa*

The subject of series [4] is A2780 ovarian cancer cells. Nature of the series: Cell viability on co-administration of Ru complexes (1/3 x IC50) with formate or acetate. In kind it is cell-based, human. Particulars: for Cell viability: A2780, complex 1/3 x IC50, 24 h. On the procedure: Cell viability assays were carried out with complexes 1–8 in A2780 ovarian cancer cells. These experiments were carried out as described above with the following modifications: a fixed concentration of each Ru complex equal to 1/3 × IC50 was used in co-administration with three different concentrations of sodium formate or sodium acetate (0.5, 1.0 and 2.0 mM). To prepare the stock solution of the drug, the complex was dissolved in 5% dimethylsulfoxide and diluted in a 1:1 mixture of 0.9% saline:cell culture medium. This stock was further diluted using RPMI-1640 until working concentrations were achieved. Separately, stock solutions of sodium formate or sodium acetate were prepared in saline. The complex and formate were added to each well independently, but within 5 min of each other.
Supplementary Table 7: Percent cell viability of A2780 ovarian cancer cells exposed to equipotent concentrations of ruthenium complexes 1-3 and 5-8 (1/3 x […]
The experiments included 48 h of pre-incubation and 72 h of drug recovery, both in drug-free medium at 310 K in a 5% CO2 humidified atmosphere. All the experiments were performed as duplicates of triplicates in independent experiments and the error bars were calculated as the standard deviation from the mean.
Supplementary Table 11: Cell viability (%) of A2780 ovarian cancer cells exposed […]
administered with different concentrations of sodium acetate (0, 0.5, 1 and 2 mM).
The experiments involved 48 h of pre-incubation and 72 h of drug recovery, both in […]
Cell viability percentages (%)
Complex Acetate concentration (mM)

The next series has as its system 9-ethylguanine. Nature of the series: Binding to model nucleobase 9-ethylguanine by 1H NMR. To be noted: D2O, pH* 7.2 ± 0.1, 310 K. On the procedure:
Supplementary Table 4: Binding constants for formation of 9-EtG adducts of complexes 1-4 determined by 1H NMR. The experiments were performed in D2O, pH* 7.2 ± 0.1 and 310 K. Equilibrium was reached by the time the first 1H NMR spectrum was recorded (< 10 min). […]
DNA is believed to be the main target for [(bip)Ru(en)Cl]+ (8). Due to the structural similarity of the complexes 1-5 with complex 8, their binding to DNA was […]
Interaction with nucleobases
Initially, model nucleobases, 9-ethylguanine and 9-methyladenine were reacted with complexes 1-4 in D2O, 310 K and pH* 7.2 ± 0.1. The binding of the complexes to 9-EtG or 9-MeA was monitored by 1H-NMR spectroscopy. Peaks for the 9-EtG adducts were observed by the time the first spectrum was recorded (< 5 min after mixing), […]
equilibrium was reached rapidly. The binding constants for formation of 9-EtG adducts determined by NMR were between 60 and 106 mM-1 (Supplementary Table 4). These values are in the same range as that from the ethylenediamine complex [(bip)Ru(en)Cl]+ (K9-EtG= 60.3 mM-1),2 which also binds strongly to DNA.3, 4 The high resolution mass spectrum confirmed the formation of [(η6-arene)Ru(XEn)(9-EtG)]+ (Supplementary Table 5). The interaction of complexes 1-4 with 9-MeA was also investigated, but no reaction was detected by 1H-NMR.
It is well established that N7 of guanine is the preferred nucleotide binding site for many transition metals ions. 2-8 Furthermore, strong and selective binding to N7 of 9-EtG, has been observed for [(η6-arene)Ru(en)Cl]+.3, 4 A pH* titration of […]

Series [5] relates to A2780 ovarian cancer cells. The series is described as follows: Ruthenium accumulation in cancer cells (ICP-MS). Format: cell-based, human. To be noted: for Cell Ru: A2780, 1/3 x IC50, 24 h drug exposure, no recovery time; for Cell accum.: A2780, 24 h, 1/3 x IC50. The procedure: Briefly, 1.5 × 10^6 cells per well were seeded on a six-well plate. […] After this time, cells were washed, treated with trypsin-EDTA, counted and cell pellets were collected. Each pellet was digested overnight in concentrated nitric acid (73%) at 353 K; the resulting solutions were diluted using double-distilled water to give a final concentration of 5% HNO3 and the amount of Ru taken up by the cells was determined by ICP–MS. […]
Supplementary Table 3: Antiproliferative activity of complexes 1-8 in A2780 ovarian cancer cells and their cellular accumulation (expressed as ng Ru per million cells).
The latter experiments were carried out using equipotent concentrations of the […]
experiments were performed as duplicates of triplicates in independent experiments and the error bars were calculated as the standard deviation from the mean. […]

Series [6] can be described thus: pH* titration of the 9-EtG adduct (1H NMR). Format: physicochemical. To be noted: protonation/deprotonation of N1 of coordinated 9-EtG, H8 chemical shift versus pH*. The text has this:
[(p-cym)Ru(TsEn)(9-EtG)]+ was used to confirm that the complex binds to N7. A plot
of the chemical shift of H8 from bound 9-EtG (Supplementary Figure 3), versus pH*
from coordinated 9-EtG and therefore we conclude that the binding of complex 2 to […]

Values joined by “and” are separate entries in the source; they are usually repeats but may differ in a detail not shown here. Equal values may be shown once.

In the case of `CS(=O)(=O)[N-]CCN.Cc1ccc(C(C)C)cc1.[Cl-].[Ru+2]` [Complex 1, [(p-cym)Ru(MsEn)Cl]], half-maximal inhibition in series [1] (IC50) required 11.9 ± 0.8 µM. Also, in series [2], the “TOF D2O/MeOH-d4” value turned out to be 1.25 ± 0.03 h⁻¹ and the “TOF D2O” value was determined as 1.11 ± 0.02 h⁻¹. Moreover, in series [3], the “pKa*” value was 9.86±0.01. Moreover, the Cell viability in series [4] (formate 0.5 mM) is recorded as 61± 1%. For the same molecule, the Cell viability in series [4] (formate 1 mM) amounted to 40.0 ± 0.4%. Moreover, the Cell viability in series [4] (formate 2 mM) is 1.5 ± 0.1% and ~1%. In addition, the “decrease in cell survival” value in series [4] (A2780, formate increased from 0 to 2 mM) was “ca. 50 fold”. The “Binding constant for formation of 9-EtG adducts” value (“Binding constant for formation” below) in the series with 9-ethylguanine turned out to be 105.4 ± 2.3 mM⁻¹. Moreover, in series [5], the “Cell Ru” value came to 0.16 ± 0.02 ng x 106 cells and the Cell accum. is 0.16 ng Ru/10^6 cells.
On to `Cc1ccc(C(C)C)cc1.NCC[N-]S(=O)(=O)c1ccc(C(F)(F)F)cc1.[Cl-].[Ru+2]` [Complex 3, [(p-cym)Ru(TfEn)Cl]], for which, in series [1], the IC50 is 14.2 ± 0.8 µM. In series [2], the “TOF D2O/MeOH-d4” value is 5.7 ± 0.3 h⁻¹. Also, in series [2], the “TOF D2O” value came out at 3.06 ± 0.05 h⁻¹. In addition, the “pKa*” value in series [3] is 9.71±0.01. The Cell viability in series [4] (formate 0 mM) is given as 71 ± 2%; in series [4] (formate 0.5 mM) it was 60± 2%; in series [4] (formate 1 mM), 39.4 ± 2.0%; in series [4] (formate 2 mM), 19 ± 2%. The “Binding constant for formation” value in the series with 9-ethylguanine came out at 60.5 ± 6.0 mM⁻¹. For the same molecule, the “Cell Ru” value in series [5] stood at 0.31 ± 0.04 ng x 106 cells. Moreover, in series [5], the Cell accum. is listed as 0.31 ng Ru/10^6 cells.
In the case of `Cc1ccc(C(C)C)cc1.NCC[N-]S(=O)(=O)c1ccc([N+](=O)[O-])cc1.[Cl-].[Ru+2]` [Complex 4, [(p-cym)Ru(NO2En)Cl]], in series [1], the midpoint of inhibition, the IC50, lay at 14.7 ± 0.6 µM. In addition, the “time for completion of the catalytic reaction” value in series [2] (6 mol equiv of NAD+) turned out to be 20.5 min. In addition, in series [2], the “TOF D2O/MeOH-d4” value was 9.6 ± 0.3 h⁻¹ and the “TOF D2O” value turned out to be 4.1 ± 0.1 h⁻¹. For the same molecule, the “pKa*” value in series [3] is recorded as 9.56±0.04. Besides, the “Binding constant for formation” value in the series with 9-ethylguanine came out at 92.8 ± 1.0 mM⁻¹.
Take `CCn1cnc2c(=O)[nH]c(N)nc21.Cc1ccc(C(C)C)cc1.Cc1ccc(S(=O)(=O)[N-]CCN)cc1.[Ru+2]` [[(p-cym)Ru(TsEn)(9-EtG)]+]: in series [6], the “pKa*” value is given as 8.77.

As a reminder, the IC50 is the concentration that gives 50% inhibition. Read a high IC50 as a need for much substance.

The values are drawn from publication PMC4383003, “Transfer hydrogenation catalysis in cells as a new approach to anticancer drug design” (Nature Communications, 2015).
